The text below walks through data of patent publication US5583227A, “Antiulcer compounds having a substituted alkynyl or quinoxaline nucleus and methods of making thereof” (Mochida Pharmaceutical Co. Ltd., priority 1994, dated 1996).

Structures are written as SMILES. Where two headings read alike, the source gives them in different places.

Series [1] has as its target T1, H^+,K^+ adenosine triphosphatase (Sus scrofa, UniProt P19156).
T1 construct: hog stomach was homogenized and subjected to ultracentrifugation to obtain a microsome fraction; from tissue; host or cells: hog stomach, microsome fraction (discontinuous Ficoll gradient)
In words: H+,K+ adenosine triphosphatase inhibition (proton pump inhibition). The format is biochemical, hog. How it is done: Proton pump inhibition was evaluated by the H^+,K^+ adenosine triphosphatase (to be referred to as "H^+,K^+ ATPase" hereinafter)inhibition.
That is, hog stomach was homogenized and subjected to ultracentrifugation to obtain a microsome fraction, and the microsomes were subjected to discontinuous density gradient ultracentrifugation using 0 and 9% Ficoll solutions to obtain a fraction containing H^+,K^+ ATPase. The H^+,K^+ ATPase activity was determined by measuring the released inorganic phosphorus using ATP as the substrate and an inorganic phosphorus measuring reagent PiSET(IATRON) manufactured by IATRON.

Series [2] concerns Stress ulcer. Nature of the series: Stress ulcer. The format is in vivo, Wistar male rats. To be noted: Rattus norvegicus; oral, 7 hours stress loading in water bath at 23° C.; read-out: Antiulcer activity, Stress ulcer, ED50 value. As for the experimental part: (Test Example 3) Stress ulcer
Basically according to the method of Takagi et al. (Japanese Journal of Pharmacology (to be referred to as "Japan. J. Pharmacol." hereinafter), vol.18, pp.9-18, each of the compounds shown in Examples was orally administered to Wistar male rats which have been subjected to fasting of 24 hours (free drinking). Each rat was transferred into a stress cage 30 minutes thereafter and subjected to stress loading by suspending the cage in a water bath controlled at 23° C. to such a depth that the rat was soaked up to its breast.
After 7 hours of the stress loading, the rat was recovered from the water bath to excise the stomach. The length (mm) of each ulcer developed in the stomach was measured under a stereoscopic microscope, and the total length of ulcers per one animal was used as an ulcer index. The dose of each test compound required to inhibit 50% of the ulcer index of the control group was calculated (ED50). The results are shown in Table 3, together with the results of the following pylorus ligation ulcer test.

Series [3] concerns Pylorus ligation ulcer. In words: Pylorus ligation ulcer. The format is in vivo, Wistar male rats. Particulars: Rattus norvegicus; oral, 14 hours after pylorus ligation; read-out: Antiulcer activity, Pylorus ligation ulcer, ED50 value. How it is done: (Test Example 4) Pylorus ligation ulcer
Basically according to the method of Shay et al. (Gastroenterology, vol.5, pp.43-61, 1945), each of the compounds shown in Examples was orally administered to Wistar male rats which have been subjected to fasting of 48 hours (free drinking). After 30 minutes of the compound administration,the pylorus of each rat was ligated.
After 14 hours of standing, the stomach was excised. The length and width of each ulcer developed in the fore-stomach part were measured under a stereoscopic microscope to calculate the ulcer area (length×width). In accordance with the method of Takagi et al. (Japan. J. Pharmacol., vol.24, pp.357-361, 1974), ulcer index was calculated based on the total ulcer area per animal. The dose of each test compound required to inhibit 50% of the ulcer index of the control group was calculated (ED50).

The subject of series [4] is ulcer induced by 0.15N hydrochloric acid and 60% ethanol. In words: Cell protection effect (hydrochloric acid/ethanol-induced ulcer). The format is in vivo, Wistar male rats. Particulars: Rattus norvegicus, 1 h; oral, 30 minutes before 0.15N HCl / 60% ethanol 5 ml/kg. How it is done: (Test Example 5) Cell protection effect
Basically according to the method of Mizui and Doteuchi (Japan. J. Pharmacol., vol.33, pp.939-945, 1983), each of the compounds shown in Examples was orally administered to Wistar male rats which have been subjected to fasting of 24 hours (free drinking). After 30 minutes of the compound administration, a mixture solution of 0.15N hydrochloric acid and 60% ethanol was orally administered at a dose of 5 ml/kg. After 1 hour of standing, the stomach was excised. The length (mm) of each ulcer developed in the stomach was measured under a stereoscopic microscope to calculate the total length of ulcers per animal as an ulcer index. The dose of each test compound required to inhibit 50% of the ulcer index of the control group was calculated (ED50).

Series [5] can be described thus: Acute toxicity test. To be noted: mouse, in vivo; oral, mice, one week observation. From the text: (Test Example 6) Acute toxicity test
Each of the compounds shown in Examples was orally administered to three ICR male mice per group.

The subject of series [6] is gastric acid secretion. In words: Gastric acid secretion inhibition activity (pylorus-ligated, histamine-stimulated rats). Particulars: Rattus norvegicus; 30 mg/kg oral; pylorus ligated 3 hours later; histamine hydrochloride 30 mg/kg s.c.; total acidity over 3 hours; read-out: Acid secretion inhibition rate (%). The format is in vivo, Sprague-Dawley (SD) male rats. As for the experimental part:
(Test Example 2) Gastric acid secretion inhibition activity
Basically according to the method of Satoh et (Journal of Pharmacology and Experimental Therapeutics, vol.248, pp.806-815, 1988), each of the compounds shown in Examples was orally administered at a dose of 30 mg/kg to Sprague-Dawley (SD) male rats which have been subjected to fasting of 24 hours (free drinking).
After 3 hours of the compound administration, the pylorus of each rat was ligated under urethane anesthesia, and 30 mg of histamine hydrochloride per Kg was administered to the rat by subcutaneous injection. After 3 hours of the ligation, the gastric juice was collected to measure its volume and calculate total acidity (mEqH^+ /3 hours) by sodium hydroxide titration. The inhibition rate (%) was calculated by the following formula in which A represents the total gastric juice acidity of control group rat and B represents the total gastric juice acidity of test compound-administered group rat. [formula]

The mark [7] stands for this setting: H+,K+ ATPase fraction from hog stomach microsomes, ATP substrate, released inorganic phosphorus, read-out: Enzyme inhibition IC50 value (converted).

T1 sequence (P19156 2-1034 limits assumed): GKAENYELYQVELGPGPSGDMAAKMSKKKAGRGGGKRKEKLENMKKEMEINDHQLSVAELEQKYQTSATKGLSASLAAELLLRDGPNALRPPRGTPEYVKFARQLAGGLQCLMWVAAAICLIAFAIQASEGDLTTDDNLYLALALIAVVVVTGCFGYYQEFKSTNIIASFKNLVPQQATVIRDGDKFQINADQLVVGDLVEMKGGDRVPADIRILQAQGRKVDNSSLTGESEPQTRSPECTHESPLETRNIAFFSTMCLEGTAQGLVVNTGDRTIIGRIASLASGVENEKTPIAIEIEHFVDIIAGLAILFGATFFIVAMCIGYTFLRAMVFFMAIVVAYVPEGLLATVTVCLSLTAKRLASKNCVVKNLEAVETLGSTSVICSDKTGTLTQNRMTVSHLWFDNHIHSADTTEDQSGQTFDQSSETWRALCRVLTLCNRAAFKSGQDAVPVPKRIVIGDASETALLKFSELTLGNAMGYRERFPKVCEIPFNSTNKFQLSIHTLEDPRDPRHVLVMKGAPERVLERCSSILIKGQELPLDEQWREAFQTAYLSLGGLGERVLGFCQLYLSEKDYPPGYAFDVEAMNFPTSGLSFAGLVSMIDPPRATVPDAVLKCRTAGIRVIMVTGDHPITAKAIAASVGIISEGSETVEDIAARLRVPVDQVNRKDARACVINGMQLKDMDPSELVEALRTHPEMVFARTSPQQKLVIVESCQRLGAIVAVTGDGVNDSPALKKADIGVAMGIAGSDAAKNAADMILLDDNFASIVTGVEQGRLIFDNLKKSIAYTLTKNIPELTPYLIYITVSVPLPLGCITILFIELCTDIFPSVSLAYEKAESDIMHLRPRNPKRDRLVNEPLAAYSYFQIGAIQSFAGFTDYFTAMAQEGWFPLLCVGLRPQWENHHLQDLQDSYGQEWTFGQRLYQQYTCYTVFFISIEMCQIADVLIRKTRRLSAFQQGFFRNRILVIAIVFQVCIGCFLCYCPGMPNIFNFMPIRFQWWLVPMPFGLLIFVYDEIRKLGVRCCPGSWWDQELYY
T1 sequence (P18434 whole entry partner): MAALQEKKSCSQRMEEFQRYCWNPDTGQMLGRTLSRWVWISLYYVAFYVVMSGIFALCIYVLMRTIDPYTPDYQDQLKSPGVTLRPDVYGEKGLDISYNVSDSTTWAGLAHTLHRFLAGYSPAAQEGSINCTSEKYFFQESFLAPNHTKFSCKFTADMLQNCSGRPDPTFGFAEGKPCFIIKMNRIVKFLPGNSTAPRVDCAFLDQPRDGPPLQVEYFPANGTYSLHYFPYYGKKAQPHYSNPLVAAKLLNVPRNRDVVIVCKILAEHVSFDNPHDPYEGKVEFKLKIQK

One may read the IC50 as the point on the concentration scale where inhibition reaches its midpoint. In general, ED50 refers to the midpoint of the dose-response relation. The term LD50 denotes the dose expected to kill half of the subjects tested. `COCC#Cc1nc(C#N)c(C#N)nc1C#CCOC` [Example 7, 5,6-bis(3-methoxy-1-propynyl)-2,3-dicyanopyrazine]: the IC50 in series [1] (setting [7]) was 1.88 µM. In addition, the ED50 was 5.6 mg/kg in series [2], 1.2 mg/kg in series [3] and 1.2 mg/kg in series [4]. For the same compound, the LD50 at 168 h in series [5] was over 1000 mg/kg.
In the case of `CCOC(C)C#Cc1nc2ccccc2nc1C#CC(C)OCC` (stereo not drawn) [Example 10, 2,3-bis(3-ethoxy-1-butynyl)quinoxaline], the IC50 in series [1] (setting [7]) is 96.2 µM. Further, in series [6], the inhibition in vivo at 30 mg/kg worked out at 38%. The figures for the median effective dose (ED50) in series [2], in series [3] and in series [4] were 15 mg/kg, 11 mg/kg and 1.9 mg/kg, respectively.
As to `CCC(C#Cc1nc2ccccc2nc1C#CC(CC)OC)OC` (stereo not drawn) [Example 11, 2,3-bis(3-methoxy-1-pentynyl)quinoxaline], in series [1] (setting [7]), the IC50 is 30.4 µM. Besides, in series [6], the inhibition in vivo at 30 mg/kg was 27%. The ED50 was 35 mg/kg in series [3] and 41 mg/kg in series [4]. Further, the LD50 at 168 h in series [5] is over 1000 mg/kg.
Consider `COCCOC(C)(C)C#Cc1nc2ccccc2nc1C#CC(C)(C)OCCOC` [Example 43, 2,3-bis(3-(2-methoxyethoxy)-3-methyl-1-butynyl)quinoxaline], for which the 50% effective dose (ED50) in series [4] is 13 mg/kg. Also, the LD50 at 168 h in series [5] was over 1000 mg/kg.
In the case of `CCOCCOC(C)(C)C#Cc1nc2ccccc2nc1C#CC(C)(C)OCCOCC` [Example 44, 2,3-bis(3-(2-ethoxyethoxy)-3-methyl-1-butynyl)quinoxaline], the IC50 in series [1] (setting [7]) was 88.9 µM. Further, the 50% effective dose (ED50) in series [2] was 59 mg/kg; in series [4] it was 13 mg/kg. The LD50 at 168 h in series [5] is over 1000 mg/kg.
In the case of `CCCC#Cc1nc(C#N)c(C#N)nc1C#CCOC` [Example 81], the IC50 in series [1] was 1.51 µM. The inhibition in vivo at 30 mg/kg in series [6] stood at 61%. Further, the ED50 in series [2] was found to be 42 mg/kg; in series [3], 5.2 mg/kg. In series [5], the LD50 at 168 h was over 1000 mg/kg.
In the case of `COC(C)(C)C#Cc1nc2ccccc2nc1C#CC(C)(C)OC` [Example 114], in series [1] (setting [7]), the IC50 was 93 µM. In addition, the inhibition in vivo at 30 mg/kg in series [6] was determined as 30%. This compound also returned an ED50 in series [4] of 22 mg/kg. In series [5], the LD50 at 168 h is over 1000 mg/kg.
Turning to `CCC(C#Cc1nc2ccccc2nc1C#CC(CC)OCCOC)OCCOC` (stereo not drawn) [Example 116], in series [1] (setting [7]), the IC50 was 188 µM. The inhibition in vivo at 30 mg/kg in series [6] turned out to be 32%. The ED50 in series [2] was found to be 39 mg/kg; in series [4], 2.7 mg/kg. In series [5], the LD50 at 168 h was over 1000 mg/kg.
As for `CCOCCOC(C#Cc1nc2ccccc2nc1C#CC(CC)OCCOCC)CC` (stereo not drawn) [Example 117], the IC50 in series [1] (setting [7]) was 123 µM. The inhibition in vivo at 30 mg/kg in series [6] came out at 35%. The ED50 is 6.1 mg/kg in series [2], 28 mg/kg in series [3] and 8 mg/kg in series [4]. Also, the LD50 at 168 h in series [5] was over 1000 mg/kg.
For `CCC(C#Cc1nc2ccccc2nc1C#CC(CC)OCCOC(C)C)OCCOC(C)C` (stereo not drawn) [Example 119], the IC50 in series [1] (setting [7]) was 11.1 µM. Further, the 50% effect level in series [4] (ED50) was put at a dose of 22 mg/kg.
In the case of `CCC(C#Cc1nc2ccc(C=O)cc2nc1C#CC(CC)OCCOC)OCCOC` (stereo not drawn) [Example 138], in series [1] (setting [7]), the IC50 is 10.7 µM. Besides, the 50% effect level in series [4] (ED50) was put at a dose of 9.8 mg/kg.
